Assay results: paper PMC4215638, “J-147 a Novel Hydrazide Lead Compound to Treat Neurodegeneration: CeeTox™ Safety and Genotoxicity Analysis” (Journal of neurology & neurophysiology, 2013)

Columns and labels:
[1] = tested on: rat hepatoma (H4IIE) cell line; assay: CeeTox cell mass (cell number), propidium iodide fluorescence; format: cell-based; details: H4IIE cells; for Cell Number TC50: 24hour analysis endpoint, cell number (or mass)
Description: All Ceetox assays utilizing the rat hepatoma (H4IIE) cell line as the test system were conducted by CeeTox Inc Kalamazoo, MI. Ceetox assays are described in detail by McKim and Lapchak and according to a Standard Operating Procedure (SOP).
(§1) Rat hepatoma derived H4IIE cells were used as the test system because the cell have a rapid doubling time in culture (i.e. 22 hours). The culture medium used for these cells was Eagles Minimum Essential Medium (MEM) with 10% bovine serum and 10% calf serum (Invitrogen). H4IIE cells were seeded into 96-well plates and allowed to equilibrate for approximately 48 hr before drug assay to allow cells to move into a stable growth phase prior to treatment. Following the equilibration period the cells were exposed to J-147 at concentrations of 1–300 μM. Three to 7 replicates were done for each assay to construct concentration-response curves. Solubility was determined by Nephalometry techniques immediately after dosing and prior to harvesting the cells at 6 or 24 hr. Following the incubation period, cells or their supernatant (culture medium) were analyzed for changes in cell proliferation (cell mass), membrane leakage, mitochondrial function, oxidative stress, and apoptosis. The resultant exposure concentration response curves were graphed and analyzed for determining the concentration that produced a half maximal response or TC50 [28, 30].
Cell mass in each well was measured with a modified propidium iodide (PI), a specific nucleic acid binding dye that fluoresces when intercalated within the nucleic acids. The 15nm shift enhances PI fluorescence approximately 20 times while the excitation maxima are shifted 30–40nm. Triton-X-100 was used to permeabilize the H4IIE cells thereby allowing the PI access to intracellular RNA and DNA. Fluorescence was measured using a Packard Fusion plate reader at 540 nm excitation and 610 nm emission. Data is collected as relative fluorescent units (RFU) and expressed as percent change relative to control;

[2] = tested on: rat hepatoma (H4IIE) cell line; assay: Intracellular glutathione (GSH) levels; format: cell-based; details: H4IIE cells; for Percent Change in Total GSH: decrease indicated by (−), increase by (+)
Description: as §1
Intracellular glutathione levels were determined as described previously. Briefly, the sulfhydryl group of GSH reacts with DTNB (5,5′-dithio-bis-2-nitrobenzoic acid, Ellman’s reagent) and produces a yellow colored 5-thio-2-nitrobenzoic acid (TNB). The mixed disulfide, GSTNB (between GSH and TNB) that is concomitantly produced, is reduced by glutathione reductase to recycle the GSH and produce more TNB. The rate of TNB production is directly proportional to the concentration of GSH in the sample. Measurement of the absorbance of TNB at 405 or 412 nm provides an accurate estimation of GSH in the sample. At the end of the exposure period, the medium was removed from the cells and metaphosphoric acid (MPA) was added to each well. Plates were then shaken for 5 min at room temperature and stored at −20°C until needed. The sample plates were thawed just prior to analysis and centrifuged at > 2000 × g for 2 min. Sample aliquots were removed and transferred to a clean 96-well plate along with appropriate standard curve controls. Sample pH was neutralized just prior to analysis and each well received an aliquot of PBS reaction buffer containing Ellman’s reagent, NADPH, and glutathione reductase. The plates were shaken for 15–30 min at room temperature and glutathione content was determined colorimetrically with a Packard Fusion reader at 415 nm. The assay is based on the concept that all GSH is oxidized to GSSG by DTNB reagent. Two molecules of GSH are required to make one molecule of GSSG (oxidized glutathione). Total GSH was determined by reducing GSSG to 2GSH with glutathione reductase. A standard curve was prepared with oxidized glutathione (GSSG) over a range of concentrations. These concentrations are then converted to glutathione equivalents (GSX) essentially by multiplying the GSSG standard concentrations by 2. The amount of GSX expressed as pmoles/well was determined using the standard curve and regression analysis and are expressed as percent of control;

[3] = tested on: Caspase 3 in H4IIE cells; assay: Apoptosis: caspase 3 activity (DEVD-AMC); format: cell-based, rat
Description: as §1
Caspase 3 activity was determined using a caspase substrate (DEVD, Asp-Glu-Val-Asp) labeled with a fluorescent molecule, 7-Amino-4-methylcoumarin (AMC). Caspase 3 cleaves the tetrapeptide between D and AMC, thus releasing the fluorogenic green AMC [28]. Following the test article exposure to cells in 96-well plates, medium was aspirated from plates and PBS added to each well. Plates were stored at −80°C to lyse cells and store samples until further analysis. On the day of analysis, plates were removed from freezer and thawed. […] AMC release was measured in a spectrofluorometer at an excitation wavelength of 360 nm and an emission wavelength of 460 nm. Values are expressed as relative fluorescent units (RFU). […]

[4] = Microsomal metabolic stability; format: in vitro ADME; details: 30 minutes at 37°C, rat microsomes
Description: Metabolic stability was conducted using pooled microsomes from non-induced male Sprague-Dawley rats. J-147 was incubated for 30 minutes at 37°C at concentrations of 1 μM. Subsequent HPLC analysis using a Waters Alliance 2795 in combination with a Waters Quattro Premier mass spectrometer measured disappearance of the parent molecule. The compounds were run on a Waters X-BridgeC18 (186003021) 50 × 2.1 mm column with 3.5 micron particle packing at a flow rate of 1 ml/min and with the temperature maintained at 50°C. Solvent A was water with 0.1% formic acid. Solvent B was acetonitrile with 0.07% formic acid. The data for 3 replicates are expressed as percent of parent remaining.

[5] = Drug solubility in culture medium (light scattering, Nepheloskan); format: physicochemical; details: complete culture medium with serum; medium with 10% bovine serum and 10% calf serum, 37°C; read-out: Solubility in the culture medium system
Description: The final concentration of DMSO in the 0–100 μM solutions was 0.5% and at the 300 μM solution DMSO was 1.5%. The final dosing solutions were prepared in Eagles Minimum Essential Medium. All experiments that used DMSO as the drug solvent also included a DMSO negative control. Negative controls of medium plus DMSO (0.5%) were included with and without cells. A positive control for complete cell death received 1 mM digitonin in medium on the day of dosing.
The samples were evaluated using light scattering with a Nepheloskan instrument. A reading that was greater than or equal to 3 times background was considered the limit of solubility.

[6] = tested on: HT22 and primary cell; design: method as in PMID 22194796, PMID 23673233; details: HT22 and primary cortical cells, IAA or glutamate toxicity; read-out: EC50 neuroprotection (cell survival); cited from earlier work
[7] = tested on: low-density cultured rat cortical neurons; details: previously published; read-out: EC50 neurotrophism; cited from earlier work
[8] = tested on: AD mouse; design: method as in PMID 23673233; details: cited from earlier work

| Compound | Cell Number TC50 [1] [nM] | Total GSH TC50 [2] [nM] | Percent Change in Total GSH [2] [%] | Caspase 3 Activity (Index/Dose): dose ([3]; dose part of cell) | Caspase 3 Activity (Index/Dose): index ([3]; index part of cell) | Concentration range with decrease in cell proliferation ([1]; prior to effects on other markers, in the absence of cell death) [µM] | Effect on caspase-3 activity [3] | Metabolism Ranking ([4]; 1 μM) | remaining at 0.5 h, 1 μM ([4]; male, Sprague-Dawley, pooled microsomes from non-induced rats, percent of parent remaining) [%] | solubility [5] [µM] | EC50 [6] [nM] | EC50 [7] [nM] | Safety and memory impairment after chronic administration [8] |
| --- | --- | --- | --- | --- | --- | --- | --- | --- | --- | --- | --- | --- | --- |
| C=C(C)[C@H]1Cc2c(ccc3c2O[C@@H]2COc4cc(OC)c(OC)cc4[C@@H]2C3=O)O1 [Rotenone, rotenone] | 40 | 300 | −100.0 |  |  |  |  |  |  |  |  |  |  |
| CC[C@@]1(O)C(=O)OCc2c1cc1n(c2=O)Cc2cc3ccccc3nc2-1 [Camptothecin, camptothecin] | 600 | 3900 | −64.5 | 1 (0–200=1) | 3 (400–600=3) |  |  |  |  |  |  |  |  |
| COc1cccc(/C=N/N(C(=O)C(F)(F)F)c2ccc(C)cc2C)c1 [J-147, (E)-N-(2,4-Dimethylphenyl)-2,2,2-trifluoro-N′-(3-methoxybenzylidene) acetohydrazide] | 293000 | 217000 | −84.9 |  |  | 20 to 100 | did not affect | High (<45=high) | 12 | ≥ 300 | 60 to 115 | 25 | safe and beneficial to reduce memory impairment |
